The test system of series [1] is AsPC-1 cells. Put plainly: SRB antiproliferative assay, monolayer culture. In kind it is cell-based, human. The settings on record: mean ± S.E.M. Here is the method: (§1) EBC-1 (human lung […] cells with MET gene amplification) and Mia-Paca-2 (human PDAC cells) were obtained from Japanese Collection of Research Bio Resources Cell Bank (JCRB). AsPC-1 (human PDAC), MKN-45 (human gastric adenocarcinoma cells with MET gene amplification), HT-29 (human colorectal adenocarcinoma), and K562 cells (human chronic myelogenous leukemia) were obtained from the Iranian Biological Resource Centre, Tehran, Iran. AsPC-1, EBC-1, MKN-45, and K562 cells were cultured in RPMI 1640 medium containing 10% heat-inactivated fetal bovine serum (FBS) and 1% penicillin/streptomycin. Mia-Paca-2 and HT-29 cells were grown in DMEM low glucose, containing 10% and 20% heat-inactivated FBS, resoectively and 100 U/ml penicillin/streptomycin. All cells were grown in monolayer cultures at 37 °C in a humidified incubator with 5% CO2.
(§2) Antiproliferative effects of synthetic compounds were evaluated by the SRB assay as described previously. Cancer cells were trypsinized, homogenous cell suspensions were prepared and 100 µl of cell suspensions were cultured at the densities of 5 × 10^4 cells/ml (for AsPC-1 and Mia-Paca-2), 4 × 10^4 cells/m (for EBC-1 and MKN-45), 3 × 10^4 cells/ml (for K562) and 1 × 10^4 cells/ml (for HT-29) in 96-well flat-bottom plates. After 24 h of incubation to allow cells to attach and resume optimal growth, the synthetic compounds dissolved in DMSO and diluted in the growth medium were added. One hundred µl of synthesized derivatives were added at different concentrations in triplicate and incubated for an additional 72 h at 37 °C. The cells were then fixed by gentle addition of 50 μl cold trichloroacetic acid (TCA) 50% (w/v, 10% final concentration) and incubated for 60 min at 4 °C. Then, the supernatant was discarded, and the plates were washed four times with distilled water and air dried. Afterwards, 100 μl of SRB solution 0.04% (w/v) dissolved in 1% acetic acid was added to each well, and plates were incubated for 15 min at room temperature. At the next step, the unbound dye was removed by washing four times with 1% acetic acid and the plates were air dried. The bound stain was finally solubilized with 150 μl of 10 mM Tris base solution, and the absorbance was recorded at a wavelength of 540 nm with a Bio-Tek microplate reader (Model Synergy HTX).
(In general: The SRB assay estimates cell density from bound dye.)

Series [2] relates to HT-29 cells. Put plainly: SRB antiproliferative assay, monolayer culture. It is filed as cell-based, human. Particulars: mean ± S.E.M. How it is done:
as §1, §2

The subject of series [3] is MKN-45 cells. Put plainly: SRB antiproliferative assay, monolayer culture. It is filed as cell-based, human. Particulars: mean ± S.E.M. Here is the method: as §1, §2
Series [4] relates to Mia-Paca-2 cells. The series is described as follows: SRB antiproliferative assay, monolayer culture. Particulars: mean ± S.E.M. It is filed as cell-based, human. How it is done: as §1, §2
Series [5] relates to EBC-1 cells. Put plainly: SRB antiproliferative assay, monolayer culture. In kind it is cell-based, human. The settings on record: mean ± S.E.M. Here is the method: as §1, §2
Series [6] has as its system K562 cells. The series is described as follows: SRB antiproliferative assay, monolayer culture. It is filed as cell-based, human. Particulars: mean ± S.E.M. Here is the method:
as §1, §2

The melting point is the temperature of the solid-liquid transition. For orientation: IC50 means the concentration that gives 50% inhibition.

Consider `Brc1ccc(Cn2cc(COc3ccc(C=NNc4ncnc5ccccc45)cc3)nn2)cc1` [Compound 8a, 2-(4-((1-(4-Bromobenzyl)-1H-1,2,3-triazol-4-yl)methoxy)benzylidene)-1-(quinazolin-4-yl)hydrazine], for which the melting point is 207.3 °C. Moreover, the IC50 in series [1] (Homo sapiens, ASPC1, 72 h) was above 100 µM. The IC50 in series [2] (Homo sapiens, HT-29, 72 h) was above 100 µM. In addition, in series [3] (Homo sapiens, MKN-45, 72 h), the half-maximal inhibitory concentration (IC50) is above 100 µM. Further, the IC50 in series [4] (Homo sapiens, MIA PaCa-2, 72 h) was above 100 µM. For the same molecule, the concentration for half-maximal inhibition (IC50) in series [5] (Homo sapiens, EBC-1, 72 h) was above 100 µM. Further, the IC50 in series [6] (Homo sapiens, K562, 72 h) is 57.4 ± 21.9 µM.

With `C(=NNc1ncnc2ccccc12)c1ccc(OCc2cn(Cc3ccccc3)nn2)cc1` [Compound 8g, 2-(4-((1-Benzyl-1H-1,2,3-triazol-4-yl)methoxy)benzylidene)-1-(quinazolin-4-yl)hydrazine], the melting point came to 218.6 °C. Moreover, the IC50 in series [1] (Homo sapiens, ASPC1, 72 h) is above 100 µM. For the same molecule, the IC50 in series [2] (Homo sapiens, HT-29, 72 h) is above 100 µM. Besides, the 50% inhibitory concentration (IC50) in series [3] (Homo sapiens, MKN-45, 72 h) worked out at 67.7 ± 4.6 µM. In series [4] (Homo sapiens, MIA PaCa-2, 72 h), the IC50 is above 100 µM. In addition, the IC50 in series [5] (Homo sapiens, EBC-1, 72 h) was above 100 µM. In addition, the IC50 in series [6] (Homo sapiens, K562, 72 h) came out at 96.6 ± 1.1 µM.

For `COc1cc2nccc(Oc3ccc(NC(=O)C4(C(=O)Nc5ccc(F)cc5)CC4)cc3)c2cc1OC` [Cabozantinib, reference compound], the IC50 in series [1] (Homo sapiens, ASPC1, 72 h) was found to be 1.4 ± 0.1 µM; in series [2] (Homo sapiens, HT-29, 72 h), 3.7 ± 0.67 µM; in series [3] (Homo sapiens, MKN-45, 72 h), 1.04 ± 0.06 µM; in series [4] (Homo sapiens, MIA PaCa-2, 72 h) it was 3.8 ± 0.6 µM; in series [5] (Homo sapiens, EBC-1, 72 h), 0.059 ± 0.014 µM; in series [6] (Homo sapiens, K562, 72 h) it was 4 ± 1 µM.

Take `C[C@@H](Oc1cc(-c2cnn(C3CCNCC3)c2)cnc1N)c1c(Cl)ccc(F)c1Cl` [Crizotinib, reference compound]: the concentration for half-maximal inhibition (IC50) in series [1] (Homo sapiens, ASPC1, 72 h) amounted to 2.45 ± 1.3 µM; in series [3] (Homo sapiens, MKN-45, 72 h) it was 0.05 ± 0.003 µM; in series [4] (Homo sapiens, MIA PaCa-2, 72 h), 2.36 ± 1.2 µM; in series [5] (Homo sapiens, EBC-1, 72 h) it was 0.006 ± 0.001 µM.

`Clc1ccc(Cn2cc(COc3ccc(C=NNc4ncnc5ccccc45)cc3)nn2)cc1` [Compound 8e, 2-(4-((1-(4-Chlorobenzyl)-1H-1,2,3-triazol-4-yl)methoxy)benzylidene)-1-(quinazolin-4-yl)hydrazine]: the IC50 is above 100 µM in series [1] (Homo sapiens, ASPC1, 72 h); above 100 µM in series [2] (Homo sapiens, HT-29, 72 h); above 100 µM in series [3] (Homo sapiens, MKN-45, 72 h); above 100 µM in series [4] (Homo sapiens, MIA PaCa-2, 72 h); above 100 µM in series [5] (Homo sapiens, EBC-1, 72 h); 61.5 ± 21.6 µM in series [6] (Homo sapiens, K562, 72 h).

Molecule `Clc1ccc(Cn2cc(COc3ccc(C=NNc4ncnc5ccccc45)cc3)nn2)cc1Cl` [Compound 8d, 2-(4-((1-(3,4-Dichlorobenzyl)-1H-1,2,3-triazol-4-yl)methoxy)benzylidene)-1-(quinazolin-4-yl)hydrazine] gave a melting point of 224.6 °C. Also, in series [1] (Homo sapiens, ASPC1, 72 h), the IC50 is above 100 µM. In series [2] (Homo sapiens, HT-29, 72 h), the IC50 was 93.4 ± 2.2 µM. The IC50 in series [3] (Homo sapiens, MKN-45, 72 h) worked out at 83.6 ± 6 µM. Besides, the IC50 in series [4] (Homo sapiens, MIA PaCa-2, 72 h) is above 100 µM. Moreover, the IC50 in series [5] (Homo sapiens, EBC-1, 72 h) was above 100 µM. Moreover, in series [6] (Homo sapiens, K562, 72 h), the IC50 is above 100 µM.

In the case of `O=C1c2ccccc2C(=O)N1CCCn1cc(COc2ccccc2C=NNc2ncnc3ccccc23)nn1` [Compound 8i], the IC50 in series [1] (72 h) was above 100 µM; in series [2] (72 h), above 100 µM; in series [3] (72 h), above 100 µM; in series [4] (72 h), above 100 µM; in series [5] (72 h) it was 89.4 ± 4.3 µM; in series [6] (72 h), 86.2 ± 3 µM.

`Fc1ccc(Cn2cc(COc3ccc(C=NNc4ncnc5ccccc45)cc3)nn2)cc1` [Compound 8b, 2-(4-((1-(4-Fluorobenzyl)-1H-1,2,3-triazol-4-yl)methoxy)benzylidene)-1-(quinazolin-4-yl)hydrazine] returned a melting point of 204.9 °C. Besides, in series [1] (Homo sapiens, ASPC1, 72 h), the half-maximal inhibitory concentration (IC50) was above 100 µM. In addition, the IC50 in series [2] (Homo sapiens, HT-29, 72 h) is above 100 µM. Moreover, the IC50 in series [3] (Homo sapiens, MKN-45, 72 h) was above 100 µM. The IC50 in series [4] (Homo sapiens, MIA PaCa-2, 72 h) is above 100 µM. The IC50 in series [5] (Homo sapiens, EBC-1, 72 h) is above 100 µM. In addition, the IC50 in series [6] (Homo sapiens, K562, 72 h) was above 100 µM.

`O=[N+]([O-])c1ccc(Cn2cc(COc3ccc(C=NNc4ncnc5ccccc45)cc3)nn2)cc1` [Compound 8f, 2-(4-((1-(4-Nitrobenzyl)-1H-1,2,3-triazol-4-yl)methoxy)benzylidene)-1-(quinazolin-4-yl)hydrazine] displayed a melting point of 208.4 °C. Further, the 50% inhibitory concentration (IC50) in series [1] (Homo sapiens, ASPC1, 72 h) is above 100 µM. Further, the IC50 in series [2] (Homo sapiens, HT-29, 72 h) is above 100 µM. The IC50 in series [3] (Homo sapiens, MKN-45, 72 h) is 56.6 ± 6.5 µM. In series [4] (Homo sapiens, MIA PaCa-2, 72 h), the IC50 was above 100 µM. Also, the IC50 in series [5] (Homo sapiens, EBC-1, 72 h) was above 100 µM. In series [6] (Homo sapiens, K562, 72 h), the IC50 is above 100 µM.

The values are drawn from article PMC10482942, “Novel quinazoline-1,2,3-triazole hybrids with anticancer and MET kinase targeting properties” (Scientific Reports, 2023).
